In patent US20170101438A1, “COSMETIC OR PHARMACEUTICAL METHODS FOR THE TREATMENT AND/OR CARE OF THE SKIN AND/OR HAIR USING TRIPEPTIDES CAPABLE OF STIMULATING CYCLIC ADENOSINE MONOPHOSPHATE SYNTHESIS” (Lipotec, S.A., priority 2009, published 2017):

Legend:
[1] = test system: human G361 melanocyte cell line; assay: Melanogenesis stimulation (melanin extracted, absorbance at 470 nm); type: cell-based; details: 4 days, G361 cells, normalized to number of cells
Protocol: A human G361 melanocyte cell line was incubated for 4 days on a 12-well plate in presence of the peptide at various concentrations, after which the cells were trypsinized, the melanin was extracted and was quantified by measuring the absorbance at 470 nm in a spectrophotometer. The values obtained were normalized with regards to the number of cells. The concentration of melanin was determined in pg/cell using a standard regression analysis obtained with synthetic melanin at known concentrations.

[2] = test system: human G361 melanocyte cell line; assay: cAMP synthesis stimulation assay (competitive ELISA); type: cell-based; details: G361 cells, normalized to average basal cAMP values
Protocol: cAMP synthesis stimulation was assessed in the human G361 melanocyte cell line in the presence of the peptides of the invention. The cells were seeded (10^6 cells/plate 25 cm^2) and incubated for 24 hours in McCoy's complete medium, after which the peptides were added to 10 μM and were incubated for another 24 hours. 40 μM forskolin was used as a positive control. The cells were centrifuged and the supernatants were collected, and the cAMP levels were determined by carrying out a competitive ELISA assay following the protocols of the commercial kit (Cayman, Ref 0.581001)

| Compound | Melanin synthesis stimulation ([1]; 10 μM) | Melanin synthesis stimulation ([1]; 50 μM) | Melanin synthesis stimulation ([1]; 100 μM) | cAMP increase ([2]; peptide 10 μM, 24 hours) | cAMP increase ([2]; positive control 40 μM) |
| --- | --- | --- | --- | --- | --- |
| Palm-L-Tyr-L-Tyr-L-Met-NH2 | 64% | 79% | 138% | 57% |  |
| C=C[C@@]1(C)CC(=O)[C@]2(O)[C@@]3(C)[C@@H](O)CCC(C)(C)[C@@H]3[C@H](O)[C@H](OC(C)=O)[C@@]2(C)O1 [Forskolin, reference compound] |  |  |  |  | 117% |
